The term IC50 denotes the concentration at which inhibition is half-maximal.

One test addresses SARS-CoV-2 3CL-protease (Severe acute respiratory syndrome coronavirus 2, UniProt P0DTD1). Description: SARS-CoV-2 3C-Like (3CL) Protease Fluorescence Assay (FRET). The format is biochemical. The following applies: IC50, SARS-CoV-2 3CL-protease 10 nM, test compounds 0-10 μM, duplicate.
With `CC(C)C[C@@H](C(=O)N1C[C@]2(C[C@H]1C#N)C(=O)Nc1ccccc12)N(C)C(=O)[C@H](C)NC(=O)C(F)(F)C(F)(F)C(F)(F)C(F)(F)F` [Example 144], the IC50 was below 100 nM. `C[C@H](NC(=O)C(F)(F)C(F)(F)C(F)(F)F)C(=O)N(C)[C@@H](C)C(=O)N1C[C@]2(C[C@H]1C#N)C(=O)Nc1ccccc12` [Example 198] registered an IC50 below 100 nM.

Still in this test, the particulars now being: SARS-CoV-2 3CL-protease 10 nM, test compounds 0-10 μM, duplicate, read-out: IC50.
`CCN(C(=O)[C@H](C)NC(=O)N1CCCCC1)[C@@H](CC(C)C)C(=O)N1C[C@]2(C[C@H]1C#N)C(=O)Nc1ccccc12` [Example 370]: the IC50 is below 100 nM.

Regarding `CCCC(F)(F)C(=O)N[C@@H](C)C(=O)N(CC)[C@@H](CC(C)C)C(=O)N1C[C@]2(C[C@H]1C#N)C(=O)Nc1ccccc12` [Example 369], the IC50 is below 100 nM. Still for that read-out and setting: under `CN(C(=O)[C@@H]1CC[C@H](C(F)(F)F)N1C)[C@@H](CC(C)(C)C)C(=O)N1C[C@]2(C[C@H]1C#N)C(=O)Nc1ccccc12` [Example 234] stands below 100 nM; under `C[C@H](NC(=O)c1cc(OC(F)(F)F)c2ncccc2c1)C(=O)N(C)[C@@H](CC(C)(C)C)C(=O)N1C[C@]2(C[C@H]1C#N)C(=O)Nc1ccccc12` [Example 210], below 100 nM. Consider `CC(C)N1C[C@]2(C[C@H]1C(=O)N(C)[C@@H](CC(C)(C)C)C(=O)N1C[C@]3(C[C@H]1C#N)C(=O)Nc1ccccc13)C(=O)Nc1ccccc12` [Example 183], for which the IC50 fell in the range of 100 to 1000 nM. On to `CN(C(=O)[C@@H]1C[C@@H](C(F)(F)F)CN1)[C@@H](CC(C)(C)C)C(=O)N1C[C@]2(C[C@H]1C#N)C(=O)Nc1ccccc12` [Example 229], for which the IC50 is below 100 nM. The same measure, in the same setting: under `CC(C)(C)C[C@H](NC(=O)[C@H](CC1CC1)NC(=O)C1CC2CCC1C2)C(=O)N1C[C@]2(C[C@H]1C#N)C(=O)Nc1ccccc12` (some centres unmarked) [Example 318] stands below 100 nM; under `CC(C)CC(NC(=O)C(F)(F)F)C(=O)N1CC[C@H](c2ccccc2)[C@H]1C(=O)N1C[C@]2(C[C@H]1C#N)C(=O)Nc1ccccc12` (some centres unmarked) [Example 345], below 100 nM. For the compound `CC(C)(C)C[C@H](NC(=O)[C@@H](NC(=O)C1(c2ccccc2)CC1)c1ccccc1)C(=O)N1C[C@]2(C[C@H]1C#N)C(=O)Nc1ccccc12` [Example 248], the half-maximal inhibitory concentration (IC50) was below 100 nM. The same measure, in the same setting: under `C[C@@H]1CC[C@@H](C(=O)N(C)[C@@H](CC(C)(C)C)C(=O)N2C[C@]3(C[C@H]2C#N)C(=O)Nc2ccccc23)N1C` [Example 239] stands below 100 nM; under `C[C@H](NC(=O)c1cc(F)cc2ccccc12)C(=O)N(C)[C@@H](CC(C)(C)C)C(=O)N1C[C@]2(C[C@H]1C#N)C(=O)Nc1ccccc12` [Example 292], below 100 nM; under `CC(C)(C)C[C@H](NC(=O)[C@@H](NC(=O)C(F)(F)c1ccccc1)c1ccccc1)C(=O)N1C[C@]2(C[C@H]1C#N)C(=O)Nc1ccccc12` [Example 249], below 100 nM. With `CC(N[C@@H](C)C(=O)N(C)[C@@H](CC(C)(C)C)C(=O)N1C[C@]2(C[C@H]1C#N)C(=O)Nc1ccccc12)C(F)(F)F` (some centres unmarked) [Example 299], the IC50 is below 100 nM. With `CC(C)(C)C[C@H](NC(=O)[C@H](CC1CC1)NC(=O)c1ccc(F)c(F)c1)C(=O)N1C[C@]2(C[C@H]1C#N)C(=O)Nc1ccccc12` [Example 326], the IC50 was below 100 nM.

In the case of `CC(C)C[C@@H](C(=O)N1C[C@]2(C[C@H]1C#N)C(=O)Nc1ccccc12)N(C)C(=O)[C@@H]1[C@@H]2C[C@@H]2CN1C` [Example 253], the IC50 was 100 to 1000 nM. Take `CC(C)(C)C[C@H](NC(=O)[C@H](Cc1ccccc1)Nc1ccc(F)cc1)C(=O)N1C[C@]2(C[C@H]1C#N)C(=O)Nc1ccccc12` [Example 339]: the IC50 was below 100 nM. Still for that read-out and setting: under `CC[C@H](NC(=O)C(F)(F)C(F)(F)F)C(=O)N(C)[C@@H](CC(C)C)C(=O)N1C[C@]2(C[C@H]1C#N)C(=O)Nc1ccccc12` [Example 200] stands below 100 nM; under `CCN(C(=O)[C@H](C)NC(=O)c1ccc(Cl)c(Cl)c1)[C@@H](CC(C)C)C(=O)N1C[C@]2(C[C@H]1C#N)C(=O)Nc1ccccc12` [Example 364], below 100 nM. The same measure, in the same setting: under `CC(C)C(NC(=O)C(F)(F)F)C(=O)N1CC[C@H](c2ccccc2)[C@H]1C(=O)N1C[C@]2(C[C@H]1C#N)C(=O)Nc1ccccc12` (some centres unmarked) [Example 344] stands below 100 nM. With `CCN1C[C@H]2CCCC[C@H]2C[C@H]1C(=O)N(C)[C@@H](CC(C)(C)C)C(=O)N1C[C@]2(C[C@H]1C#N)C(=O)Nc1ccccc12` [Example 179], the IC50 is below 100 nM. `CC(C)(C)C[C@H](NC(=O)[C@H](CC1CC1)NC(=O)C1CCCCC1)C(=O)N1C[C@]2(C[C@H]1C#N)C(=O)Nc1ccccc12` [Example 327]: the IC50 is below 100 nM. As for `CN(C(=O)[C@@H]1CC[C@@H](C(F)(F)F)N1)[C@@H](CC(C)(C)C)C(=O)N1C[C@]2(C[C@H]1C#N)C(=O)Nc1ccccc12` [Example 233], the concentration for half-maximal inhibition (IC50) is below 100 nM. Take `CC(C)(C)C[C@H](NC(=O)[C@H](CC1CC1)NC(=O)c1ccc(C2CCCCC2)cc1)C(=O)N1C[C@]2(C[C@H]1C#N)C(=O)Nc1ccccc12` [Example 303]: the IC50 was below 100 nM. Still for that read-out and setting: under `CCN1CC2(CCCC2)C[C@H]1C(=O)N(C)[C@@H](CC(C)C)C(=O)N1C[C@]2(C[C@H]1C#N)C(=O)Nc1ccccc12` [Example 257] stands below 100 nM; under `C[C@H](NC(=O)C(F)(F)C(F)(F)F)C(=O)N(C)[C@@H](CC(C)(C)C)C(=O)N1C[C@]2(C[C@H]1C#N)C(=O)Nc1ccc(Cl)cc12` [Example 174], below 100 nM; under `CC(C)(C)C[C@H](NC(=O)[C@@H](Nc1ccccc1)C1CC1)C(=O)N1C[C@]2(C[C@H]1C#N)C(=O)Nc1ccccc12` [Example 340], below 100 nM. On the same count and under the same terms, under `C[C@H](NC(=O)c1ccc(S(C)(=O)=O)cc1)C(=O)N(C)[C@@H](CC(C)(C)C)C(=O)N1C[C@]2(C[C@H]1C#N)C(=O)Nc1ccccc12` [Example 287] stands below 100 nM; under `CC(C)C[C@@H](C(=O)N1C[C@]2(C[C@H]1C#N)C(=O)Nc1ccccc12)N(C)C(=O)[C@H](C)NC(=O)C1(F)CC1` [Example 296], below 100 nM.

With `C[C@H](NC(=O)c1cnn(-c2ccc(C(F)(F)F)cc2)c1)C(=O)N(C)[C@@H](CC(C)(C)C)C(=O)N1C[C@]2(C[C@H]1C#N)C(=O)Nc1ccccc12` [Example 221], the IC50 was below 100 nM. Consider `CC(C)[C@H](Nc1ccc(F)cc1)C(=O)N[C@@H](CC(C)(C)C)C(=O)N1C[C@]2(C[C@H]1C#N)C(=O)Nc1ccccc12` [Example 337], for which the IC50 lay within 100 to 1000 nM. In the case of `CCN(C(=O)[C@H](C)NC(=O)C12CC3CC(CC(C3)C1)C2)[C@@H](CC(C)C)C(=O)N1C[C@]2(C[C@H]1C#N)C(=O)Nc1ccccc12` [Example 368], the IC50 was below 100 nM.

With `CC(C)C[C@@H](C(=O)N1C[C@]2(C[C@H]1C#N)C(=O)Nc1ccccc12)N(C)C(=O)[C@H](C)NC(=O)C12CC3CC(CC(C3)C1)C2` [Example 298], the IC50 is below 100 nM.

Consider `CCN(C(=O)[C@H](C)NC(=O)c1ccc(F)cc1)[C@@H](CC(C)C)C(=O)N1C[C@]2(C[C@H]1C#N)C(=O)Nc1ccccc12` [Example 372], for which the IC50 was below 100 nM. Turning to `CC(C)C[C@@H](C(=O)N1C[C@]2(C[C@H]1C#N)C(=O)Nc1ccccc12)N(C)C(=O)[C@@H]1CC[C@@H](c2ccc(F)cc2)N1C(C)C` [Example 238], the IC50 was below 100 nM. Same read-out and setting: under `CC(C)C[C@@H](C(=O)N1C[C@]2(C[C@H]1C#N)C(=O)Nc1ccccc12)N(C)C(=O)[C@H](C)NC(=O)c1c(F)c(F)c(F)c(F)c1F` [Example 301] stands below 100 nM; under `CC(C)C[C@@H](C(=O)N1C[C@]2(C[C@H]1C#N)C(=O)Nc1ccccc12)N(C)C(=O)[C@H](C)NC(=O)C(C)(F)F` [Example 273], below 100 nM; under `CC(C)(C)C[C@H](NC(=O)[C@H](CC1CC1)NC(=O)c1cnn(-c2ccc(C(F)(F)F)cc2)c1)C(=O)N1C[C@]2(C[C@H]1C#N)C(=O)Nc1ccccc12` [Example 306], below 100 nM. Take `C[C@H](NC(=O)C(F)(F)c1ccc(F)cc1)C(=O)N(C)[C@@H](CC(C)(C)C)C(=O)N1C[C@]2(C[C@H]1C#N)C(=O)Nc1ccccc12` [Example 308]: the IC50 is below 100 nM. On to `CCC(F)(F)C(=O)N[C@@H](C)C(=O)N(C)[C@@H](CC(C)C)C(=O)N1C[C@]2(C[C@H]1C#N)C(=O)Nc1ccccc12` [Example 271], for which the IC50 is below 100 nM.

In the case of `C[C@H](NC(=O)c1ccc2c(c1)OC(F)(F)O2)C(=O)N(C)[C@@H](CC(C)(C)C)C(=O)N1C[C@]2(C[C@H]1C#N)C(=O)Nc1ccccc12` [Example 280], the IC50 is below 100 nM.

`CC(C)C[C@@H](C(=O)N1C[C@]2(C[C@H]1C#N)C(=O)Nc1ccc(Br)cc12)N(C)C(=O)[C@H](C)NC(=O)C(F)(F)C(F)(F)F` [Example 169]: the IC50 was below 100 nM.

Consider `C[C@H](NC(=O)C(F)(F)C(F)(F)F)C(=O)N(C)[C@@H](CC1CC1)C(=O)N1C[C@]2(C[C@H]1C#N)C(=O)Nc1ccc(Br)cc12` [Example 167], for which the IC50 is below 100 nM. On to `CC(C)C[C@@H](C(=O)N1C[C@]2(C[C@H]1C#N)C(=O)Nc1ccccc12)N(C)C(=O)[C@@H]1CC2(CC2)CN1C(C)C` [Example 241], for which the IC50 was below 100 nM.

With `CCN1C[C@H]2C[C@H]2[C@H]1C(=O)N(C)[C@@H](CC(C)C)C(=O)N1C[C@]2(C[C@H]1C#N)C(=O)Nc1ccccc12` [Example 254], the IC50 was in the range of 100 to 1000 nM. For the compound `CCN(C(=O)[C@H](C)NC(=O)c1ccc(C(C)(C)C)cc1)[C@@H](CC(C)C)C(=O)N1C[C@]2(C[C@H]1C#N)C(=O)Nc1ccccc12` [Example 363], the IC50 was below 100 nM. Still for that read-out and setting: under `CC(C)C[C@H](NC(=O)OC1CCC1)C(=O)N[C@@H](CC(C)(C)C)C(=O)N1C[C@]2(C[C@H]1C#N)C(=O)Nc1ccccc12` [Example 250] stands below 100 nM; under `CC(C)C[C@@H](C(=O)N1C[C@]2(C[C@H]1C#N)C(=O)Nc1ccccc12)N(C)C(=O)[C@H](C)NC(=O)C1(C(F)(F)F)CC1` [Example 297], below 100 nM; under `C[C@@H](NC(=O)OCc1ccccc1)C(=O)N(C)[C@@H](CC(C)(C)C)C(=O)N1C[C@]2(C[C@H]1C#N)C(=O)Nc1ccccc12` [Example 307], below 100 nM.

The values above are taken from patent publication US20260138988A1, “Spiropyrrolidine Derived Antiviral Agents” (Enanta Pharmaceuticals, Inc., priority 2021, published 2026).
